Results as given in patent US7192924B2, “Corticotropin releasing factor 2 receptor agonists” (priority 2002, dated 2007).
Ends that are not written are not given here. Peptide text beside a SMILES is read from it.

How the values were obtained:
CRF1R = target: T1, CRF1R (Homo sapiens, UniProt P34998); assay: CRF1R agonist activity (EC50, Emax), called comparative CRF binding; format: cell-based; conditions: read-out: CRF1R EC50
T1 sequence (P34998 24-415): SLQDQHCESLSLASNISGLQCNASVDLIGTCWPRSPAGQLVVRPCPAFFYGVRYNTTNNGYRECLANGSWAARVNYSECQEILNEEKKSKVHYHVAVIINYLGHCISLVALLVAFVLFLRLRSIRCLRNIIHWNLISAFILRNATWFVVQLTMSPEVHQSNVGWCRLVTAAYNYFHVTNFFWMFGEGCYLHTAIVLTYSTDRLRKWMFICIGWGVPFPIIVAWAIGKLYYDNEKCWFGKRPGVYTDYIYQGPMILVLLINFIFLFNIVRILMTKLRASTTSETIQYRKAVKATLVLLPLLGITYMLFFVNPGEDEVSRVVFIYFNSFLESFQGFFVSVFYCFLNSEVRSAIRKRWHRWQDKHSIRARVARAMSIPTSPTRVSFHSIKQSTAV
Outline: (§1)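 Agonism is judged from increased cAMP, measured either directly in lysates or through reporter genes under a cAMP responsive element. Cells or membranes express only the receptor of interest, and vehicle-treated cells serve as control.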

CRF2R = target: T2, CRF2R (Homo sapiens, UniProt Q13324); assay: CRF2R agonist activity (EC50, Emax), called comparative CRF binding; format: cell-based; conditions: read-out: CRF2R EC50
T2 sequence (Q13324 1-411): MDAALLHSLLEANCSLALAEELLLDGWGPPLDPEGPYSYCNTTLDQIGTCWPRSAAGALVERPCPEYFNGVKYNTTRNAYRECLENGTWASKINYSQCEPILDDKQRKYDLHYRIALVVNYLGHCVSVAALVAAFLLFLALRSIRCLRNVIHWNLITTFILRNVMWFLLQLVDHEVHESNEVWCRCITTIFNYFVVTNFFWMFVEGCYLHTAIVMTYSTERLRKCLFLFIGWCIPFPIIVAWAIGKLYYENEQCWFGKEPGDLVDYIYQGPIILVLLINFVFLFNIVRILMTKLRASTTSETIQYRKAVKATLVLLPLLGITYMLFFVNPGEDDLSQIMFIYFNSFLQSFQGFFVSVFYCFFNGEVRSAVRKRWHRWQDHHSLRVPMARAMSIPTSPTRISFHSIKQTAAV
Outline: as §1

Compound | EC50 (CRF1R) [nM] | EC50 (CRF2R) [nM]
CC[C@H](C)[C@H](NC(=O)[C@H](CCCNC(=N)N)NC(=O)[C@H](C)NC(=O)[C@H](CC(N)=O)NC(=O)[C@H](CCC(N)=O)NC(=O)[C@H](CCC(=O)O)NC(=O)[C@H](C)NC(=O)[C@H](CCCNC(=N)N)NC(=O)[C@H](CCC(=O)O)NC(=O)[C@H](CCCNC(=N)N)NC(=O)[C@H](CCC(N)=O)NC(=O)[C@H](CO)NC(=O)[C@H](CCC(N)=O)NC(=O)[C@@H](NC(=O)[C@H](CCCNC(=N)N)NC(=O)[C@H](C)NC(=O)[C@H](CC(C)C)NC(=O)[C@H](CCC(=O)O)NC(=O)[C@H](CC(C)C)NC(=O)[C@H](CC(C)C)NC(=O)[C@@H](NC(=O)[C@H](CCCNC(=N)N)NC(=O)[C@H](CC(C)C)NC(=O)[C@H](CC(C)C)NC(=O)[C@H](Cc1ccccc1)NC(=O)[C@H](CC(C)C)NC(=O)[C@@H]1CCCN1C(=O)[C@H](CC(C)C)NC(=O)[C@H](CC(=O)O)NC(=O)[C@@H](NC(=O)[C@H](CO)NC(=O)[C@H](CC(C)C)NC(=O)[C@H](CO)NC(=O)[C@@H]1CCCN1C(=O)[C@H](CC(N)=O)NC(=O)[C@@H](N)CC(=O)O)[C@@H](C)CC)[C@@H](C)O)[C@@H](C)O)C(=O)N[C@@H](Cc1ccccc1)C(=O)N[C@@H](C)C(=O)N[C@@H](CCCNC(=N)N)C(=O)N[C@H](C(N)=O)C(C)C [compound 329] (H-DNPSLSIDLPLFLLRTLLELARTQSQRERAEQNARIFARV-NH2; N-terminus assumed) | ≥ 1000 | 5.15
CC[C@H](C)[C@H](NC(=O)[C@H](CCCNC(=N)N)NC(=O)[C@H](C)NC(=O)[C@H](CC(N)=O)NC(=O)[C@H](CCC(N)=O)NC(=O)[C@H](CCC(=O)O)NC(=O)[C@H](C)NC(=O)[C@H](CCCNC(=N)N)NC(=O)[C@H](CCC(=O)O)NC(=O)[C@H](CCCNC(=N)N)NC(=O)[C@H](CCC(N)=O)NC(=O)[C@H](CO)NC(=O)[C@H](CCC(N)=O)NC(=O)[C@@H](NC(=O)[C@H](CCCCN)NC(=O)[C@H](CCC(=O)O)NC(=O)[C@H](CC(C)C)NC(=O)[C@H](CCC(=O)O)NC(=O)[C@H](CC(C)C)NC(=O)[C@H](CC(C)C)NC(=O)[C@@H](NC(=O)[C@H](CCCNC(=N)N)NC(=O)[C@H](CC(C)C)NC(=O)[C@H](CC(C)C)NC(=O)[C@H](CC(C)C)NC(=O)[C@H](CC(C)C)NC(=O)[C@@H]1CCCN1C(=O)[C@@H](NC(=O)[C@H](CC(=O)O)NC(=O)[C@@H](NC(=O)[C@H](CO)NC(=O)[C@H](CC(C)C)NC(=O)[C@H](CO)NC(=O)[C@@H]1CCCN1C(=O)[C@H](CC(N)=O)NC(=O)[C@@H](N)CC(=O)O)[C@@H](C)CC)C(C)C)[C@@H](C)O)[C@@H](C)O)C(=O)N[C@@H](Cc1ccccc1)C(=O)N[C@@H](C)C(=O)N[C@@H](CCCNC(=N)N)C(=O)N[C@H](C(N)=O)C(C)C [compound 384] (H-DNPSLSIDVPLLLLRTLLELEKTQSQRERAEQNARIFARV-NH2; N-terminus assumed) | ≥ 1000 | 7.1
CC[C@H](C)[C@H](NC(=O)[C@H](CCCNC(=N)N)NC(=O)[C@H](C)NC(=O)[C@H](CC(N)=O)NC(=O)[C@H](CCC(N)=O)NC(=O)[C@H](CCC(=O)O)NC(=O)[C@H](C)NC(=O)[C@H](CCCNC(=N)N)NC(=O)[C@H](CCC(=O)O)NC(=O)[C@H](CCCNC(=N)N)NC(=O)[C@H](CCC(N)=O)NC(=O)[C@H](CO)NC(=O)[C@H](CCC(N)=O)NC(=O)[C@@H](NC(=O)[C@H](CCCCN)NC(=O)[C@H](CCC(=O)O)NC(=O)[C@H](CC(C)C)NC(=O)[C@H](CCC(=O)O)NC(=O)[C@H](CC(C)C)NC(=O)[C@H](CC(C)C)NC(=O)[C@@H](NC(=O)[C@H](CCCNC(=N)N)NC(=O)[C@H](CC(C)C)NC(=O)[C@H](CC(C)C)NC(=O)[C@H](Cc1ccccc1)NC(=O)[C@H](CC(C)C)NC(=O)[C@@H]1CCCN1C(=O)[C@H](CC(C)C)NC(=O)[C@H](CC(=O)O)NC(=O)[C@@H](NC(=O)[C@H](CO)NC(=O)[C@H](CC(C)C)NC(=O)[C@H](CO)NC(=O)[C@@H]1CCCN1)[C@@H](C)CC)[C@@H](C)O)[C@@H](C)O)C(=O)N[C@@H](Cc1ccccc1)C(=O)N[C@@H](C)C(=O)N[C@@H](CCCNC(=N)N)C(=O)N[C@H](C(N)=O)C(C)C [compound 331] (H-PSLSIDLPLFLLRTLLELEKTQSQRERAEQNARIFARV-NH2; N-terminus assumed) | ≥ 1000 | 9.85
CC[C@H](C)[C@H](N)C(=O)N[C@H](C(=O)N[C@@H](CC(C)C)C(=O)N[C@@H](CO)C(=O)N[C@@H](CC(C)C)C(=O)N[C@@H](CC(=O)O)C(=O)N[C@H](C(=O)N1CCC[C@H]1C(=O)N[C@H](C(=O)NCC(=O)N[C@@H](CC(C)C)C(=O)N[C@@H](CC(C)C)C(=O)N[C@@H](CCC(N)=O)C(=O)N[C@@H](CCC(=O)O)C(=O)N[C@@H](CC(C)C)C(=O)N[C@@H](CC(C)C)C(=O)N[C@@H](CCC(=O)O)C(=O)N[C@@H](CCSC)C(=O)N[C@@H](C)C(=O)N[C@@H](CCCNC(=N)N)C(=O)N[C@@H](C)C(=O)N[C@@H](CCC(=O)O)C(=O)N[C@@H](CCC(N)=O)C(=O)N[C@@H](CC(C)C)C(=O)N[C@@H](C)C(=O)N[C@@H](CCC(N)=O)C(=O)N[C@@H](CCC(N)=O)C(=O)N[C@@H](C)C(=O)N[C@@H](Cc1c[nH]cn1)C(=O)N[C@@H](CO)C(=O)N[C@@H](CC(N)=O)C(=O)N[C@@H](CCCNC(=N)N)C(=O)N[C@@H](CCCCN)C(=O)N[C@@H](CC(C)C)C(=O)N[C@@H](CCSC)C(=O)N[C@@H](CCC(=O)O)C(=O)N[C@H](C(=O)N[C@H](C(N)=O)[C@@H](C)CC)[C@@H](C)CC)[C@@H](C)CC)C(C)C)C(C)C [compound 1] (H-IVLSLDVPIGLLQELLEMARAEQLAQQAHSNRKLMEII-NH2; N-terminus assumed) | 783 | 31.5
CC[C@H](C)[C@H](N)C(=O)N[C@H](C(=O)N[C@@H](CC(C)C)C(=O)N[C@@H](CO)C(=O)N[C@@H](CC(C)C)C(=O)N[C@@H](CC(=O)O)C(=O)N[C@H](C(=O)N1CCC[C@H]1C(=O)N[C@H](C(=O)NCC(=O)N[C@@H](CC(C)C)C(=O)N[C@@H](CC(C)C)C(=O)N[C@@H](CCC(N)=O)C(=O)N[C@H](C(=O)N[C@@H](CC(C)C)C(=O)N[C@@H](CC(C)C)C(=O)N[C@@H](CCC(=O)O)C(=O)N[C@@H](CCC(N)=O)C(=O)N[C@@H](C)C(=O)N[C@@H](CCCNC(=N)N)C(=O)N[C@@H](CCC(N)=O)C(=O)N[C@@H](CCCNC(=N)N)C(=O)N[C@@H](C)C(=O)N[C@@H](C)C(=O)N[C@@H](CCCNC(=N)N)C(=O)N[C@@H](CCC(=O)O)C(=O)N[C@@H](CCC(N)=O)C(=O)N[C@@H](C)C(=O)N[C@H](C(=O)N[C@H](C(=O)N[C@@H](CC(N)=O)C(=O)N[C@@H](C)C(=O)N[C@@H](CCCNC(=N)N)C(=O)N[C@H](C(=O)N[C@@H](CC(C)C)C(=O)N[C@@H](C)C(=O)N[C@@H](CCCNC(=N)N)C(=O)N[C@H](C(N)=O)C(C)C)[C@@H](C)CC)[C@@H](C)O)[C@@H](C)O)[C@@H](C)CC)[C@@H](C)CC)C(C)C)C(C)C [compound 114] (H-IVLSLDVPIGLLQILLEQARQRAAREQATTNARILARV-NH2; N-terminus assumed) | > 100 | 3.42
CC[C@H](C)[C@H](N)C(=O)N[C@H](C(=O)N[C@@H](CC(C)C)C(=O)N[C@@H](CO)C(=O)N[C@@H](CC(C)C)C(=O)N[C@@H](CC(=O)O)C(=O)N[C@H](C(=O)N1CCC[C@H]1C(=O)N[C@H](C(=O)NCC(=O)N[C@@H](CC(C)C)C(=O)N[C@@H](CC(C)C)C(=O)N[C@@H](CCC(N)=O)C(=O)N[C@H](C(=O)N[C@@H](CC(C)C)C(=O)N[C@@H](CC(C)C)C(=O)N[C@@H](CCC(=O)O)C(=O)N[C@@H](CCC(N)=O)C(=O)N[C@@H](CCC(=O)O)C(=O)N[C@@H](CCCCN)C(=O)N[C@@H](CCC(N)=O)C(=O)N[C@@H](CCCNC(=N)N)C(=O)N[C@@H](C)C(=O)N[C@@H](C)C(=O)N[C@@H](CCCNC(=N)N)C(=O)N[C@@H](CCC(=O)O)C(=O)N[C@@H](CCC(N)=O)C(=O)N[C@@H](C)C(=O)N[C@H](C(=O)N[C@H](C(=O)N[C@@H](CC(N)=O)C(=O)N[C@@H](C)C(=O)N[C@@H](CCCNC(=N)N)C(=O)N[C@H](C(=O)N[C@@H](CC(C)C)C(=O)N[C@@H](C)C(=O)N[C@@H](CCCNC(=N)N)C(=O)N[C@H](C(N)=O)C(C)C)[C@@H](C)CC)[C@@H](C)O)[C@@H](C)O)[C@@H](C)CC)[C@@H](C)CC)C(C)C)C(C)C [compound 115] (H-IVLSLDVPIGLLQILLEQEKQRAAREQATTNARILARV-NH2; N-terminus assumed) | > 100 | 13.6
SQEPPISLDLTFHLLREVLEQARARAAREQATTNARILARV-NH2 [compound 157] | ≥ 100 | 42
